Results published in patent US20240018123A1, “COMPOUND FOR INHIBITING OR DISINTEGRATING ANDROGEN RECEPTOR, AND PHARMACEUTICAL USE THEREOF” (KOREA RESEARCH INSTITUTE OF CHEMICAL TECHNOLOGY, priority 2020, published 2024).

What was measured:
Androgen receptor (AR) = biological target: T1, Androgen receptor (AR) (Homo sapiens, UniProt P10275, T878A); assay: Assessment of AR proteolytic activity (Western blotting of LNCap cell lysates); format: cell-based; details: 24 hours of treatment, Western blotting quantified with Image J
T1 construct: 5.5×10^5 LNCap cells were injected into each well of a 6-well plate; endogenous in cells; host or cells: LNCaP
T1 sequence (P10275 1-920 T878A): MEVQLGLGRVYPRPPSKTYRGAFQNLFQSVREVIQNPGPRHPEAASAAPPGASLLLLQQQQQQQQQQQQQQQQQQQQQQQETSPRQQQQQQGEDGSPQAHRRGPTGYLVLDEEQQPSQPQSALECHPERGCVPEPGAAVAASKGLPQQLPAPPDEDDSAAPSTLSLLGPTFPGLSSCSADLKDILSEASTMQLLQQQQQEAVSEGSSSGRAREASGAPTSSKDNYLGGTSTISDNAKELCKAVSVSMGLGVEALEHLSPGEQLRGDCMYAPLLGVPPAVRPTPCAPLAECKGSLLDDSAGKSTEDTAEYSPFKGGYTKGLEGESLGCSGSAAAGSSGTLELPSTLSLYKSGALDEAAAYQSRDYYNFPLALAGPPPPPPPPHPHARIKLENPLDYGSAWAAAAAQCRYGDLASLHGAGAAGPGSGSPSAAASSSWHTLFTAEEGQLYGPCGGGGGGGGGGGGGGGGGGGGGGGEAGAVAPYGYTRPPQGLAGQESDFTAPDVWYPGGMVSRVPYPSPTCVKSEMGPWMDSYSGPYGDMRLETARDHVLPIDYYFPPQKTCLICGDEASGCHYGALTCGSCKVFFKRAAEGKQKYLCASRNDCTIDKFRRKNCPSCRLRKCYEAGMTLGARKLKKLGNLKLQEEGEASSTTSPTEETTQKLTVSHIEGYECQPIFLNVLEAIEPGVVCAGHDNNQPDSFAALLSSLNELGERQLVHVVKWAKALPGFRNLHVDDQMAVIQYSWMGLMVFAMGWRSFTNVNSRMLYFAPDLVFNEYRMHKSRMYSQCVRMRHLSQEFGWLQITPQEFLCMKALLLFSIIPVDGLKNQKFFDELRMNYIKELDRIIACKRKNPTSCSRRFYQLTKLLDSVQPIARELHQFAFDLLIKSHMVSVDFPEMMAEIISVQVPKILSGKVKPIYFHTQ
Summary of the method: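 AR degradation read by Western blot densitometry on RIPA lysates (pH 7.5, protease inhibitor cocktail). Lysates came from LNCap cells, 5.5×10^5 per well, exposed to compound for 24 hours.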

Description for LNCaP cells: (§1) In order to evaluate the androgen receptor (AR) cytotoxicity of the compounds according to the present invention, the following experiment was conducted. Specifically, 1.5×10^3 (LNCaP) or 4×10^3 (VCaP, 22RV1), respectively, of LNCaP, VCaP, and 22RV1 cells were injected into each well of a 96-well plate. The next day, each well was treated with the compound at a final concentration of 3 nM, 10 nM, 30 nM, 100 nM, 300 nM, 1 μM, 3 μM, and 10 μM. […] After 6 days of treatment, Cell-titer-glo (promega) was treated and reacted for 10 minutes, and cell viability was measured with a multimode plate reader (PerkinElmer, Inc.), and the change was quantified compared to when DMSO was treated.
Description for VCaP cells: as §1

Row | SMILES | Degradation (1 μM treated in LNCaP, % AR remaining) (Androgen receptor (AR)) [%] | CC50 (VCaP cells) [nM] | CC50 (LNCaP cells) [nM]
1 | CC1(C)[C@H](NC(=O)c2ccc(N3CCN(CCC4CCN(C(=O)COc5ccc6nnn(C7CCC(=O)NC7=O)c(=O)c6c5)CC4)CC3)cc2)C(C)(C)[C@H]1Oc1ccc(C#N)c(Cl)c1 (stereo partly drawn) [Example 24, N-((1r,3r)-3-(3-chloro-4-cyanophenoxy)-2,2,4,4-tetramethylcyclobutyl)-4-(4-(2-(1-(2-((3-(2,6-dioxopiperidin-3-yl)-4-oxo-3,4-dihydrobenzo[d][1,2,3]triazin-6-yl)oxy)acetyl)piperidin-4-yl)ethyl)piperazin-1-yl)benzamide] | 13 | 107 | 1480
2 | CC1(C)[C@H](NC(=O)c2ccc(N3CCN(CCC4CCN(C(=O)CNc5ccc6nnn(C7CCC(=O)NC7=O)c(=O)c6c5)CC4)CC3)cc2)C(C)(C)[C@H]1Oc1ccc(C#N)c(Cl)c1 (stereo partly drawn) [Example 25, N-((1r,3r)-3-(3-chloro-4-cyanophenoxy)-2,2,4,4-tetramethylcyclobutyl)-4-(4-(2-(1-((3-(2,6-dioxopiperidin-3-yl)-4-oxo-3,4-dihydrobenzo[d][1,2,3]triazin-6-yl)glycyl)piperidin-4-yl)ethyl)piperazin-1-yl)benzamide] | 50 | 45.7 | 2130
3 | CC1(C)[C@H](NC(=O)c2ccc(N3CCN(CCC4CCN(c5cccc6nnn(C7CCC(=O)NC7=O)c(=O)c56)CC4)CC3)cc2)C(C)(C)[C@H]1Oc1ccc(C#N)c(Cl)c1 (stereo partly drawn) [Example 28, N-((1r,3r)-3-(3-chloro-4-cyanophenoxy)-2,2,4,4-tetramethylcyclobutyl)-4-(4-(2-(1-(3-(2,6-dioxopiperidin-3-yl)-4-oxo-3,4-dihydrobenzo[d][1,2,3]triazin-5-yl)piperidin-4-yl)ethyl)piperazin-1-yl)benzamide] | 69 | 1580 | 1280
4 | CC1(C)[C@H](NC(=O)c2ccc(N3CCN(CC4(F)CCN(C(=O)C5CN(c6ccc7nnn(C8CCC(=O)NC8=O)c(=O)c7c6)C5)CC4)CC3)cc2)C(C)(C)[C@H]1Oc1ccc(C#N)c(Cl)c1 (stereo partly drawn) [Example 63, N-((1r,3r)-3-(3-chloro-4-cyanophenoxy)-2,2,4,4-tetramethylcyclobutyl)-4-(4-((1-(1-(3-(2,6-dioxopiperidin-3-yl)-4-oxo-3,4-dihydrobenzo[d][1,2,3]triazin-6-yl)azetidine-3-carbonyl)-4-fluoropiperidin-4-yl)methyl)piperazin-1-yl)benzamide] | 6 | 14.8 | 53.2
5 | CC1(C)[C@H](NC(=O)c2ccc(-c3cnn(C4CCN(CC5CCN(C(=O)C6CN(c7ccc8nnn(C9CCC(=O)NC9=O)c(=O)c8c7)C6)CC5)CC4)c3)cc2)C(C)(C)[C@H]1Oc1ccc(C#N)c(Cl)c1 (stereo partly drawn) [Example 83, N-((1r,3r)-3-(3-chloro-4-cyanophenoxy)-2,2,4,4-tetramethylcyclobutyl)-4-(1-(1-((1-(1-(3-(2,6-dioxopiperidin-3-yl)-4-oxo-3,4-dihydrobenzo[d][1,2,3]triazin-6-yl)azetidine-3-carbonyl)piperidin-4-yl)methyl)piperidin-4-yl)-1H-pyrazol-4-yl)benzamide] | 43 | 6 | 13.7
6 | CC1(C)[C@H](NC(=O)c2ccc(C#CC3CCN(CC4CCN(c5ccc6nnn(C7CCC(=O)NC7=O)c(=O)c6c5)CC4)CC3)cc2)C(C)(C)[C@H]1Oc1ccc(C#N)c(Cl)c1 (stereo partly drawn) [Example 99, N-((1r,3r)-3-(3-chloro-4-cyanophenoxy)-2,2,4,4-tetramethylcyclobutyl)-4-((1-((1-(3-(2,6-dioxopiperidin-3-yl)-4-oxo-3,4-dihydrobenzo[d][1,2,3]triazin-6-yl)piperidin-4-yl)methyl)piperidin-4-yl)ethynyl)benzamide] | 20 | 2 | 31.5
7 | CC1(C)[C@H](NC(=O)c2ccc(-n3cc(C4CCN(C(=O)C5CN(c6ccc7nnn(C8CCC(=O)NC8=O)c(=O)c7c6)C5)CC4)nn3)cc2)C(C)(C)[C@H]1Oc1ccc(C#N)c(Cl)c1 (stereo partly drawn) [Example 101, N-((1r,3r)-3-(3-chloro-4-cyanophenoxy)-2,2,4,4-tetramethylcyclobutyl)-4-(4-(1-(1-(3-(2,6-dioxopiperidin-3-yl)-4-oxo-3,4-dihydrobenzo[d][1,2,3]triazin-6-yl)azetidine-3-carbonyl)piperidin-4-yl)-1H-1,2,3-triazol-1-yl)benzamide] | 40 | 15.5 | 7.06
8 | CC1(C)[C@H](NC(=O)c2ccc(C#CC3CCN(C(=O)CNc4ccc5nnn(C6CCC(=O)NC6=O)c(=O)c5c4)CC3)cc2)C(C)(C)[C@H]1Oc1ccc(C#N)c(Cl)c1 (stereo partly drawn) [Example 143, N-((1r,3r)-3-(3-chloro-4-cyanophenoxy)-2,2,4,4-tetramethylcyclobutyl)-4-((1-((3-(2,6-dioxopiperidin-3-yl)-4-oxo-3,4-dihydrobenzo[d][1,2,3]triazin-6-yl)glycyl)piperidin-4-yl)ethynyl)benzamide] | 18 | 6.9 | 17.6
9 | CC1(C)[C@H](NC(=O)c2ccc(C#CC3CCN(C(=O)COc4ccc5nnn(C6CCC(=O)NC6=O)c(=O)c5c4)CC3)cc2)C(C)(C)[C@H]1Oc1ccc(C#N)c(Cl)c1 (stereo partly drawn) [Example 144, N-((1r,3r)-3-(3-chloro-4-cyanophenoxy)-2,2,4,4-tetramethylcyclobutyl)-4-((1-(2-((3-(2,6-dioxopiperidin-3-yl)-4-oxo-3,4-dihydrobenzo[d][1,2,3]triazin-6-yl)oxy)acetyl)piperidin-4-yl)ethynyl)benzamide] | 14.7 | 21 | 144

Now from value to compound, other results behind:

Row | Degradation (1 μM treated in LNCaP, % AR remaining) (Androgen receptor (AR)) [%] | SMILES | CC50 (VCaP cells) [nM] | CC50 (LNCaP cells) [nM]
10 | 7 | CC1(C)[C@H](NC(=O)c2ccc(N3CCN(CC4CCN(C(=O)C5CN(c6ccc7nnn(C8CCC(=O)NC8=O)c(=O)c7c6)C5)CC4)CC3)cc2)C(C)(C)[C@H]1Oc1ccc(C#N)c(Cl)c1 (stereo partly drawn) [Example 11, N-((1r,3r)-3-(3-chloro-4-cyanophenoxy)-2,2,4,4-tetramethylcyclobutyl)-4-(4-((1-(1-(3-(2,6-dioxopiperidin-3-yl)-4-oxo-3,4-dihydrobenzo[d][1,2,3]triazin-6-yl)azetidine-3-carbonyl)piperidin-4-yl)methyl)piperazin-1-yl)benzamide] | 74.7 | 91.4
11 | 14 | CC1(C)[C@H](NC(=O)c2ccc(N3CCN(CCC4CCN(C(=O)C5CN(c6ccc7nnn(C8CCC(=O)NC8=O)c(=O)c7c6)C5)CC4)CC3)cc2)C(C)(C)[C@H]1Oc1ccc(C#N)c(Cl)c1 (stereo partly drawn) [Example 27, N-((1r,3r)-3-(3-chloro-4-cyanophenoxy)-2,2,4,4-tetramethylcyclobutyl)-4-(4-(2-(1-(1-(3-(2,6-dioxopiperidin-3-yl)-4-oxo-3,4-dihydrobenzo[d][1,2,3]triazin-6-yl)azetidine-3-carbonyl)piperidin-4-yl)ethyl)piperazin-1-yl)benzamide] | 37.1 | 552
12 | 6 | CC1(C)[C@H](NC(=O)c2ccc(N3CCN(CCC4CCN(c5ccc6nnn(C7CCC(=O)NC7=O)c(=O)c6c5)CC4)CC3)cc2)C(C)(C)[C@H]1Oc1ccc(C#N)c(Cl)c1 (stereo partly drawn) [Example 29, N-((1r,3r)-3-(3-chloro-4-cyanophenoxy)-2,2,4,4-tetramethylcyclobutyl)-4-(4-(2-(1-(3-(2,6-dioxopiperidin-3-yl)-4-oxo-3,4-dihydrobenzo[d][1,2,3]triazin-6-yl)piperidin-4-yl)ethyl)piperazin-1-yl)benzamide] | 120 | 425
13 | 43.6 | CC1(C)[C@H](NC(=O)c2ccc(N3CCN(CCCC4CCN(C(=O)C5CN(c6ccc7nnn(C8CCC(=O)NC8=O)c(=O)c7c6)C5)CC4)CC3)cc2)C(C)(C)[C@H]1Oc1ccc(C#N)c(Cl)c1 (stereo partly drawn) [Example 47, N-((1r,3r)-3-(3-chloro-4-cyanophenoxy)-2,2,4,4-tetramethylcyclobutyl)-4-(4-(3-(1-(1-(3-(2,6-dioxopiperidin-3-yl)-4-oxo-3,4-dihydrobenzo[d][1,2,3]triazin-6-yl)azetidine-3-carbonyl)piperidin-4-yl)propyl)piperazin-1-yl)benzamide] | 23.7 | 168
